Source: patent US5593970A, “Heterocyclic anthracycline analogs” (priority 1994, dated 1997)
pIC50: −log10 of the molar value.

What was measured:
P388 = test: Soft agar colony formation disk diffusion assay; format: cell-based, murine
Outline: (§1)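 Anti-clonogenic activity is scored as the distance from the drug-loaded disk edge to the closest colony of more than 50 cells. Solid tumour and leukaemia lines are plated in separate dishes in two-layer soft agar and incubated 10-20 days at 37° C.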

B16 = test: Soft agar colony formation disk diffusion assay; format: cell-based, murine
Outline: as §1

M5076 = test: Soft agar colony formation disk diffusion assay; format: cell-based, murine
Outline: as §1

P388/ADR = test: Soft agar colony formation disk diffusion assay; format: cell-based, murine
Outline: as §1

LL = test: Soft agar colony formation disk diffusion assay; format: cell-based, murine; details: 100 μg/DISK
Outline: as §1

SKVLB = test: Microculture tetrazolium assay; format: cell-based; details: SKVLB; read-out: IC50
LOX = test: Microculture tetrazolium assay; format: cell-based; details: read-out: IC50
MATB/ADR = test: Soft agar colony formation disk diffusion assay; format: cell-based, rat
Outline: as §1

MATB.WT = test: Soft agar colony formation disk diffusion assay; format: cell-based, rat
Outline: as §1

MCF7 = test: Soft agar colony formation disk diffusion assay; format: cell-based, human; details: 10 μg/DISK
Outline: (§2)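 Two-layer agar; upper 0.4% Noble agar/RPMI-1066 with cells, lower 0.8% agar + 0.8% Tryptic Soy Broth. Drug on 6.5 mm filter disk; 37 °C, 5% CO2, 10–20 d. Inhibition zone (disk edge to closest colony) read at 40× with eyepiece micrometer.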

MCF7/ADR = test: Soft agar colony formation disk diffusion assay; format: cell-based, human
Outline: as §2

LS180 = test: Soft agar colony formation disk diffusion assay; format: cell-based, human
Outline: as §2

`CCOC(=O)[C@@H]1CC2=C(C(=O)c3c(c(O)c4ccccc4c3OC(C)=O)C2=O)[C@@H](O)O1` (mixture of isomers) [BCH-658, (1S,3S) and (1R,3R) Ethyl[11-acetoxy-1,6-dihydroxy-5,12-dioxo-3,4,5,12-tetrahydroanthraceno (2,3-c)pyran-3-yl]formate] was tested, and the zone of inhibition (P388; 10 μg/DISK) was 42.7 ± 17.2 Zone Units, the zone of inhibition (P388; 100 μg/DISK) was 61.0 ± 0.0 Zone Units and the zone of inhibition (B16; 10 μg/DISK) was 0 Zone Units. For the same molecule, the zone of inhibition (B16; 100 μg/DISK) was 0 Zone Units, the zone of inhibition (M5076; 10 μg/DISK) was 26.6 ± 13.6 Zone Units and the zone of inhibition (M5076; 100 μg/DISK) was 76.2 ± 21.5 Zone Units. For the same molecule, the zone of inhibition (P388/ADR; 10 μg/DISK) was 18.3 ± 8.6 Zone Units, the zone of inhibition (P388/ADR; 100 μg/DISK) was 51.3 ± 20.7 Zone Units and the zone of inhibition (LL) was 51.9 ± 21.5 Zone Units. The pIC50 (SKVLB) was < 4.00, the pIC50 (LOX) was 4.18 and the zone of inhibition (MATB/ADR; 10 μg/DISK) was 0 Zone Units. It also gave a zone of inhibition (MATB/ADR; 100 μg/DISK) of 0 Zone Units, a zone of inhibition (MATB.WT; 10 μg/DISK) of 0 Zone Units and a zone of inhibition (MATB.WT; 100 μg/DISK) of 0 Zone Units. The zone of inhibition (MCF7) was 0 Zone Units, the zone of inhibition (MCF7/ADR; 10 μg/DISK) was 0 Zone Units and the zone of inhibition (MCF7/ADR; 100 μg/DISK) was 0 Zone Units. For the same molecule, the zone of inhibition (LS180; 10 μg/DISK) was 48.8 ± 34.5 Zone Units and the zone of inhibition (LS180; 100 μg/DISK) was 164.7 ± 25.8 Zone Units.
